Assay results from US8293764B2, “Compositions and methods for disruption of BRCA2-Rad51 interaction” (The Regents of the University of California, priority 2004, dated 2012).

What was measured:
[1] = system: MCF-7 cells; assay: Fate of S phase cells after hydroxyurea synchronization (BrdU uptake, mitotic index, viable cells); assay type: cell-based
Protocol: To further examine the fate of cells in S phase upon IBR2 treatment, MCF-7 cells were synchronized at G1/S transition by hydroxyurea treatment and then released to allow S phase entry by washing out the reagents. These cells were treated with 20 μM IBR2 and BrdU, and BrdU uptake was measured for DNA synthesis, as well as the mitotic index and the number of viable cells during an 18-hour period. […] Moreover, the number of mock treated cells doubled at the completion of M phase, while the number of IBR2 treated cells decreased to around 50%.
Cell culture, cell synchronization, BrdU labeling and determination of mitotic index: Breast cancer cell lines and MEF cell lines were cultured in high-glucose Dulbecco modified Eagle medium containing 10% fetal bovine serum. MCF-10A cells were cultured as described previously (Debnath et al., 2003). Cell synchronization at M phase was achieved by treatment with 0.1 μg/ml nocodazole for 8 hours. Cell synchronization at G1/S boundary was achieved by treatment with 1 mM hydroxyurea for 17 hours, 9 hours of release and again with 1 mM hydroxyurea for 14 hours. For BrdU labeling, cells were incubated with BrdU for 30 minutes and fixed for BrdU immunostaining using a BrdU labeling kit (Amersham Biosciences). For determination of mitotic index, cells were fixed in 4% formaldehyde in PBS containing 0.1 μg/ml DAPI for 30 minutes at room temperature and examined by fluorescence microscopy. 500-1000 nuclei per sample were counted to determine the number of M phase cells which only includes prometaphase, metaphase, anaphase and telophase.

[2] = system: BRCA2-/-:p53-/-, BRCA1-/-:p53-/- and p53-/- MEFs; assay: Sensitivity of isogenic MEFs to IBR2; assay type: cell-based; conditions: compared with BRCA1-/-:p53-/- and p53-/- MEFs
Source text: Next, the inventors examined the sensitivity to IBR2 treatment of isogenic MEFs with genotypes of BRCA2−/−:p53−/−, BRCA1−/−:p53−/− and p53−/−.

[3] = system: MCF-7 breast cancer cells; assay: Survival of cells under combination with chemotherapeutic agents or irradiation; assay type: cell-based
Protocol: It is therefore likely that combination of IBR2 with other chemotherapeutic agents may have synergistic effects. To test this possibility, survival of MCF-7 breast cancer cells treated with 8 μM IBR2 plus different doses of VP-16, taxol, camptothecin, or gamma-irradiation was measured. […] Thus, it should be appreciated that a combination of IBR2 with other conventional therapeutic agents may have potential clinical applications in treating various cancers.
To perform clonogenic survival assay, 1.5×10^3 MCF-7 cells were seeded in 10-cm dishes for 24 hours. Cells were then treated, in triplicate, with 5 μM IBR2 for 12 hours and then g-irradiated. Cells were continuously exposed to 5 μM IBR2 and re-fed every 4 days with fresh medium and IBR2. After 14-16 days, cells were fixed and stained with 2% methylene blue. Colonies consisting of more than 50 cells were counted.

[4] = molecular target: T1, Rad51 multimers (Homo sapiens, UniProt Q06609); assay: Gel filtration of Rad51 multimers; assay type: biochemical; conditions: Rad51:compound molar ratio 1:10
T1 sequence (Q06609 1-339): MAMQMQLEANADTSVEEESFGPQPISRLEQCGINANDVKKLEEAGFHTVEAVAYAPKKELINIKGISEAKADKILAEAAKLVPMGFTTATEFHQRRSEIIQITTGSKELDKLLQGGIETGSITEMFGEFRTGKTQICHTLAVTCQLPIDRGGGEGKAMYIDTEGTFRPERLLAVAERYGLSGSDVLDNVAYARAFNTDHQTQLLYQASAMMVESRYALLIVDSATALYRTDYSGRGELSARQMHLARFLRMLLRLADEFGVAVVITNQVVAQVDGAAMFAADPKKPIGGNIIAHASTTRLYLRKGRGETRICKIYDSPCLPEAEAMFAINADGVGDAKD
Source text: If the IBR compound indeed occupies the hydrophobic pocket for the entrance of Phe1524 in BRCA2, the oligomerization of Rad51 should also be affected since they share the same binding region. […] Therefore, if IBR2 mimics the BRC hairpin structure, the Rad51 multimerization will also be inhibited by IBR2. We compared the gel filtration profile of Rad51 between with and without IBR2. […] The inhibition of the Rad51 and BRC repeat binding was further analyzed by SPR technology in a solution competition format as previously described (see e.g., Science 303, 844-848).
Gel filtration: A mixture of Rad51 (3.2 μg) and small compound (molar ratio 1:10) was incubated for 15 minutes at 37° C., supplemented with buffer (50 mM triethanolamine-HCl [pH 7.5], 0.5 mM Mg (OAc)2, 1 mM dithiothreitol, 2 mM ATP, and 100 μg/ml BSA, total volume 20 μl) and incubated 15 more minutes. Then the mixture was loaded onto 2.4 ml Superdex 200 PC 3.2/30 columns (Pharmacia) equilibrated with the same buffer as described (Davies et al., 2001). Fractions (50 μl) were collected and 0.5 μl of each fraction was blotted onto PVDF membrane. Rad51 was detected using anti-Rad51 antibody (mAb 14B4).

[5] = system: breast cancer cells (MDA-MB-468, MDA-MB-435, MCF-7, T47D); assay: MTT assay; assay type: cell-based
Protocol: The inventors examined the effects of IBR2 on the growth and viability of a panel of breast cancer cell lines. Five exponentially growing breast cancer cell lines (MDA-MB-231, MCF-7, MDA-MB-468, SKBR3 and MDA-MB-435) were incubated with IBR2 at various concentrations (0, 5, 10 and 20 μM) for various periods of time (1, 2, 3, 4 and 5 days). The viable cell numbers were then counted by trypan blue exclusion assay. […] We also examined the effects of IBR2 on the growth and viability of cultured breast cancer cells (MDA-MB-468, MDA-MB-435, MCF-7, T47D) using the 3-(4,5-dimethylthiazol-2-yl)-2,5-diphenyltetrazolium bromide (MTT) assay.
Cell proliferation assay and clonogenic survival assays: To obtain cell growth curves, 1×10^4 cells were seeded in 12-well plate for 24 hours. Cells were then treated, in duplicate, with various concentrations of IBR2 in the presence of 0.4% DMSO. The viable cells were counted by trypan blue exclusion assay daily. MTT assay was performed as previously described (Alley et al., 1988).

With `O=S(=O)(Cc1ccccc1)N1C=Cc2ccccc2C1c1c[nH]c2ccccc12` (stereo not shown) [IBR2, 2-(benzylsulfonyl)-1-(1H-indol-3-yl)-1,2-dihydroisoquinoline] the “DNA synthesis (BrdU uptake), S phase progression” value ([1]; 20 μM IBR2, 18-hour period) was “does not interfere with S phase progression”, the “mitotic index (M phase entry)” value ([1]; 20 μM IBR2, 18-hour period) was “no or little IBR2 treated cells entered M phase” and the viability at 20 µM ([1]; Homo sapiens, MCF7, 20 μM IBR2, at completion of M phase, read-out: number of viable cells) was roughly 50%. For the same compound, the “sensitivity of BRCA2-/-:p53-/- MEFs to IBR2” value [2] was “most sensitive”, the “synergy with VP-16 on cell survival” value ([3]; 8 μM IBR2 plus different doses of VP-16) was “Significant synergistic effects” and the “synergy with camptothecin on cell survival” value ([3]; 8 μM IBR2 plus different doses of camptothecin) was “Significant synergistic effects”. For the same compound, the “synergy with gamma-irradiation on clonogenic survival” value ([3]; 8 μM IBR2 plus different doses of gamma-irradiation) was “Significant synergistic effects”, the “synergy with taxol on cell survival” value ([3]; 8 μM IBR2 plus different doses of taxol) was “Significant synergistic effects” and the “Rad51 multimerization (gel filtration elution profile)” value [4] was “dissociates Rad51 multimers”. The IC50 [5] was roughly 10 µM.
